Results published in US8952024B2, “Herbicidal pyrimidone derivatives” (E I du Pont de Nemours and Company, priority 2009, dated 2015).

What was measured:
Format in all cases: in vivo
[1] = test system: barnyardgrass (Echinochloa crus-galli); test: Test A pre-/postemergence plant response
Method in brief: (§1)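 Each species was treated preemergence via directed soil spray and postemergence at the one- to two-leaf stage, with compounds formulated in a non-phytotoxic solvent plus surfactant. Visual injury relative to untreated controls was rated after about ten days on a 0–100 scale.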

corn (Zea mays) = test: Test A pre-/postemergence plant response
Method in brief: as §1

[2] = test system: giant foxtail (Setaria faberii); test: Test A pre-/postemergence plant response
Method in brief: as §1

[3] = test system: large crabgrass (Digitaria sanguinalis); test: Test A pre-/postemergence plant response
Method in brief: as §1

[4] = test system: morningglory (Ipomoea spp.); test: Test A pre-/postemergence plant response
Method in brief: as §1

[5] = test system: pigweed (Amaranthus retroflexus); test: Test A pre-/postemergence plant response
Method in brief: as §1

[6] = test system: velvetleaf (Abutilon theophrasti); test: Test A pre-/postemergence plant response
Method in brief: as §1

[7] = test system: wheat (Triticum aestivum); test: Test A pre-/postemergence plant response
Method in brief: as §1

[8] = test system: barnyardgrass (Echinochloa crus-galli); test: Test B flooded paddy test; settings: for Plant response rating, Flood, Barnyardgrass: 250 g ai/ha, flooded paddy test, visual rating on 0 to 100 scale (0 no effect, 100 complete control) after 13 to 15 days; for Plant response rating, Barnyardgrass: Flood (flooded paddy test), 13 to 15 days; for Barnyardgrass plant response rating: Flood, 31 g ai/ha, scale 0 to 100 (0 no effect, 100 complete control)
Method in brief: (§2)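 Ratings are visual, 0–100 (100 = complete control), taken versus untreated controls 13 to 15 days after treatment in the greenhouse. Compound went straight into paddy water held 3 cm above soil, applied to 2-leaf-stage plants of four species.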

[9] = test system: ducksalad (Heteranthera limosa); test: Test B flooded paddy test; settings: for Plant response rating, Flood, Ducksalad: 250 g ai/ha, flooded paddy test, visual rating on 0 to 100 scale (0 no effect, 100 complete control) after 13 to 15 days; for Plant response rating, Ducksalad: Flood (flooded paddy test), 13 to 15 days; for Ducksalad plant response rating: Flood, 31 g ai/ha, scale 0 to 100 (0 no effect, 100 complete control)
Method in brief: as §2

rice (Oryza sativa) = test: Test B flooded paddy test; settings: for Plant response rating, Flood, Rice: 250 g ai/ha, flooded paddy test, visual rating on 0 to 100 scale (0 no effect, 100 complete control) after 13 to 15 days; for Plant response rating, Rice: Flood (flooded paddy test), 13 to 15 days; for Rice plant response rating: Flood, 31 g ai/ha, scale 0 to 100 (0 no effect, 100 complete control)
Method in brief: as §2

[10] = test system: umbrella sedge (Cyperus difformis); test: Test B flooded paddy test; settings: for Plant response rating, Flood, Sedge, Umbrella: 250 g ai/ha, flooded paddy test, visual rating on 0 to 100 scale (0 no effect, 100 complete control) after 13 to 15 days; for Plant response rating, Sedge, Umbrella: Flood (flooded paddy test), 13 to 15 days; for Sedge, Umbrella plant response rating: Flood, 31 g ai/ha, scale 0 to 100 (0 no effect, 100 complete control)
Method in brief: as §2

[11] = Postemergence, 125 g ai/ha, 0 to 100 scale where 0 is no effect and 100 is complete control
[12] = Postemergence, 500 g ai/ha, visual injury, 0 to 100 scale (0 no effect, 100 complete control), approx. ten days
[13] = Preemergence, 125 g ai/ha, 0 to 100 scale where 0 is no effect and 100 is complete control, approximately ten days
[14] = Preemergence, 500 g ai/ha, 0 to 100 scale, 0 = no effect, 100 = complete control
[15] = Postemergence, 125 g ai/ha, visual injury, 0 to 100 scale (0 no effect, 100 complete control), approx. ten days
[16] = 62 g ai/ha, scale of 0 to 100 where 0 is no effect and 100 is complete control
[17] = 125 g ai/ha, scale 0 to 100, 0 is no effect, 100 is complete control
[18] = Preemergence, 125 g ai/ha, 0 to 100 scale, 0 = no effect, 100 = complete control
[19] = Postemergence, 500 g ai/ha, 0 to 100 scale, 0 = no effect, 100 = complete control, approx. ten days
[20] = Preemergence, 500 g ai/ha, visual injury, 0 to 100 scale (0 no effect, 100 complete control), approx. ten days

COc1ccc(-n2c(-c3ccccc3)ncc(C(=O)C3=C(O)CCCC3=O)c2=O)c(OC)c1 [Compound 256]
Plant response rating, Barnyardgrass [1, 11]: 40 | Barnyardgrass plant response rating [1, 12]: 90 | Plant response rating, Barnyardgrass [1, 13]: 0 | Plant response rating, Barnyardgrass [1, 14]: 70 | Plant response rating, Corn (corn (Zea mays); [11]): 0 | Corn plant response rating (corn (Zea mays); [12]): 10 | Plant response rating, Corn (corn (Zea mays); [13]): 0 | Plant response rating, Corn (corn (Zea mays); [14]): 0 | Plant response rating, Foxtail, Giant [2, 15]: 20 | Foxtail, Giant plant response rating [2, 12]: 70 | Plant response rating, Foxtail, Giant [2, 13]: 0 | Plant response rating, Foxtail, Giant [2, 14]: 30 | Plant response rating, Crabgrass, Large [3, 11]: 30 | Crabgrass, Large plant response rating [3, 12]: 80 | Plant response rating, Crabgrass, Large [3, 13]: 10 | Plant response rating, Crabgrass, Large [3, 14]: 80 | Plant response rating, Morningglory [4, 15]: 30 | Morningglory plant response rating [4, 12]: 80 | Plant response rating, Morningglory [4, 13]: 0 | Plant response rating, Morningglory [4, 14]: 50 | Plant response rating, Pigweed [5, 15]: 90 | Pigweed plant response rating [5, 12]: 100 | Plant response rating, Pigweed [5, 13]: 0 | Plant response rating, Pigweed [5, 14]: 90 | Plant response rating, Velvetleaf [6, 15]: 100 | Velvetleaf plant response rating [6, 12]: 100 | Plant response rating, Velvetleaf [6, 13]: 20 | Plant response rating, Velvetleaf [6, 14]: 80 | Plant response rating, Wheat [7, 15]: 0 | Wheat plant response rating [7, 12]: 0 | Plant response rating, Wheat [7, 13]: 0 | Plant response rating, Wheat [7, 14]: 0 | Plant response rating, Flood, Barnyardgrass [8]: 0 | Plant response rating, Barnyardgrass [8, 16]: 0 | Plant response rating, Barnyardgrass [8, 17]: 0 | Barnyardgrass plant response rating [8]: 0 | Plant response rating, Flood, Ducksalad [9]: 85 | Plant response rating, Ducksalad [9, 16]: 40 | Plant response rating, Ducksalad [9, 17]: 80 | Ducksalad plant response rating [9]: 30 | Plant response rating, Flood, Rice (rice (Oryza sativa)): 0 | Plant response rating, Rice (rice (Oryza sativa); [16]): 0 | Plant response rating, Rice (rice (Oryza sativa); [17]): 0 | Rice plant response rating (rice (Oryza sativa)): 0 | Plant response rating, Flood, Sedge, Umbrella [10]: 75 | Plant response rating, Sedge, Umbrella [10, 16]: 40 | Plant response rating, Sedge, Umbrella [10, 17]: 75 | Sedge, Umbrella plant response rating [10]: 30

CCc1ccc(-n2c(-c3cccc(Cl)c3)ncc(C(=O)C3=C(O)CCCC3=O)c2=O)cc1 [Compound 174]
Plant response rating, Barnyardgrass [1, 11]: 90 | Barnyardgrass plant response rating [1, 12]: 100 | Plant response rating, Barnyardgrass [1, 18]: 0 | Plant response rating, Barnyardgrass [1, 14]: 40 | Plant response rating, Corn (corn (Zea mays); [11]): 10 | Corn plant response rating (corn (Zea mays); [12]): 20 | Plant response rating, Corn (corn (Zea mays); [18]): 10 | Plant response rating, Corn (corn (Zea mays); [14]): 20 | Plant response rating, Foxtail, Giant [2, 11]: 20 | Foxtail, Giant plant response rating [2, 12]: 60 | Plant response rating, Foxtail, Giant [2, 18]: 0 | Plant response rating, Foxtail, Giant [2, 14]: 40 | Plant response rating, Crabgrass, Large [3, 11]: 70 | Crabgrass, Large plant response rating [3, 12]: 90 | Plant response rating, Crabgrass, Large [3, 18]: 20 | Plant response rating, Crabgrass, Large [3, 14]: 60 | Plant response rating, Morningglory [4, 11]: 30 | Morningglory plant response rating [4, 12]: 60 | Plant response rating, Morningglory [4, 18]: 0 | Plant response rating, Morningglory [4, 14]: 0 | Plant response rating, Pigweed [5, 11]: 100 | Pigweed plant response rating [5, 12]: 100 | Plant response rating, Pigweed [5, 18]: 30 | Plant response rating, Pigweed [5, 14]: 90 | Plant response rating, Velvetleaf [6, 11]: 100 | Velvetleaf plant response rating [6, 12]: 100 | Plant response rating, Velvetleaf [6, 18]: 20 | Plant response rating, Velvetleaf [6, 14]: 70 | Plant response rating, Wheat [7, 11]: 0 | Wheat plant response rating [7, 12]: 0 | Plant response rating, Wheat [7, 18]: 0 | Plant response rating, Wheat [7, 14]: 0 | Plant response rating, Barnyardgrass [8, 17]: 0 | Barnyardgrass plant response rating [8]: 0 | Plant response rating, Ducksalad [9, 17]: 95 | Ducksalad plant response rating [9]: 80 | Plant response rating, Rice (rice (Oryza sativa); [17]): 0 | Rice plant response rating (rice (Oryza sativa)): 0 | Plant response rating, Sedge, Umbrella [10, 17]: 95 | Sedge, Umbrella plant response rating [10]: 85

CCn1c(-c2cccc(C)c2)ncc(C(=O)C2=C(O)CCCC2=O)c1=O [Compound 115]
Plant response rating, Barnyardgrass [1, 11]: 70 | Plant response rating, Barnyardgrass [1, 19]: 90 | Plant response rating, Barnyardgrass [1, 18]: 0 | Plant response rating, Barnyardgrass [1, 20]: 80 | Plant response rating, Corn (corn (Zea mays); [11]): 0 | Plant response rating, Corn (corn (Zea mays); [19]): 20 | Plant response rating, Corn (corn (Zea mays); [18]): 0 | Plant response rating, Corn (corn (Zea mays); [20]): 0 | Plant response rating, Foxtail, Giant [2, 11]: 50 | Plant response rating, Foxtail, Giant [2, 19]: 80 | Plant response rating, Foxtail, Giant [2, 18]: 20 | Plant response rating, Foxtail, Giant [2, 20]: 70 | Plant response rating, Crabgrass, Large [3, 11]: 60 | Plant response rating, Crabgrass, Large [3, 19]: 90 | Plant response rating, Crabgrass, Large [3, 18]: 20 | Plant response rating, Crabgrass, Large [3, 20]: 80 | Plant response rating, Morningglory [4, 11]: 90 | Plant response rating, Morningglory [4, 19]: 100 | Plant response rating, Morningglory [4, 18]: 60 | Plant response rating, Morningglory [4, 20]: 80 | Plant response rating, Pigweed [5, 11]: 100 | Plant response rating, Pigweed [5, 19]: 100 | Plant response rating, Pigweed [5, 18]: 70 | Plant response rating, Pigweed [5, 20]: 100 | Plant response rating, Velvetleaf [6, 11]: 100 | Plant response rating, Velvetleaf [6, 19]: 100 | Plant response rating, Velvetleaf [6, 18]: 60 | Plant response rating, Velvetleaf [6, 20]: 90 | Plant response rating, Wheat [7, 11]: 0 | Plant response rating, Wheat [7, 19]: 0 | Plant response rating, Wheat [7, 18]: 0 | Plant response rating, Wheat [7, 20]: 0 | Plant response rating, Flood, Barnyardgrass [8]: 65 | Plant response rating, Barnyardgrass [8, 16]: 50 | Plant response rating, Flood, Ducksalad [9]: 85 | Plant response rating, Ducksalad [9, 16]: 85 | Plant response rating, Flood, Rice (rice (Oryza sativa)): 20 | Plant response rating, Rice (rice (Oryza sativa); [16]): 20 | Plant response rating, Flood, Sedge, Umbrella [10]: 90 | Plant response rating, Sedge, Umbrella [10, 16]: 70

O=C1CCCC(O)=C1C(=O)c1cnc(-c2cccc(C(F)(F)F)c2)n(C2CCCCC2)c1=O [Compound 195]
Plant response rating, Barnyardgrass [1, 11]: 70 | Barnyardgrass plant response rating [1, 12]: 90 | Plant response rating, Barnyardgrass [1, 18]: 0 | Plant response rating, Barnyardgrass [1, 14]: 10 | Plant response rating, Corn (corn (Zea mays); [11]): 0 | Corn plant response rating (corn (Zea mays); [12]): 20 | Plant response rating, Corn (corn (Zea mays); [18]): 0 | Plant response rating, Corn (corn (Zea mays); [14]): 0 | Plant response rating, Foxtail, Giant [2, 11]: 30 | Foxtail, Giant plant response rating [2, 12]: 70 | Plant response rating, Foxtail, Giant [2, 18]: 0 | Plant response rating, Foxtail, Giant [2, 14]: 30 | Plant response rating, Crabgrass, Large [3, 11]: 40 | Crabgrass, Large plant response rating [3, 12]: 90 | Plant response rating, Crabgrass, Large [3, 18]: 0 | Plant response rating, Crabgrass, Large [3, 14]: 50 | Plant response rating, Morningglory [4, 11]: 60 | Plant response rating, Morningglory [4, 18]: 0 | Plant response rating, Morningglory [4, 14]: 0 | Plant response rating, Pigweed [5, 11]: 90 | Pigweed plant response rating [5, 12]: 100 | Plant response rating, Pigweed [5, 18]: 0 | Plant response rating, Pigweed [5, 14]: 10 | Plant response rating, Velvetleaf [6, 11]: 100 | Velvetleaf plant response rating [6, 12]: 100 | Plant response rating, Velvetleaf [6, 18]: 0 | Plant response rating, Velvetleaf [6, 14]: 50 | Plant response rating, Wheat [7, 11]: 0 | Wheat plant response rating [7, 12]: 0 | Plant response rating, Wheat [7, 18]: 0 | Plant response rating, Wheat [7, 14]: 20 | Plant response rating, Flood, Barnyardgrass [8]: 20 | Plant response rating, Barnyardgrass [8, 16]: 0 | Plant response rating, Barnyardgrass [8, 17]: 0 | Barnyardgrass plant response rating [8]: 0 | Plant response rating, Flood, Ducksalad [9]: 85 | Plant response rating, Ducksalad [9, 16]: 50 | Plant response rating, Ducksalad [9, 17]: 70 | Ducksalad plant response rating [9]: 0 | Plant response rating, Flood, Rice (rice (Oryza sativa)): 15 | Plant response rating, Rice (rice (Oryza sativa); [16]): 0 | Plant response rating, Rice (rice (Oryza sativa); [17]): 0 | Rice plant response rating (rice (Oryza sativa)): 0 | Plant response rating, Flood, Sedge, Umbrella [10]: 65 | Plant response rating, Sedge, Umbrella [10, 16]: 0 | Plant response rating, Sedge, Umbrella [10, 17]: 50 | Sedge, Umbrella plant response rating [10]: 0
